# Data reported in paper PMC6659393, “A New Use for an Old Drug: Carmofur Attenuates Lipopolysaccharide (LPS)-Induced Acute Lung Injury via Inhibition of FAAH and NAAA Activities” (Frontiers in Pharmacology, 2019).
# Columns and labels:
# [1] = target: T1, fatty acid amide hydrolase (FAAH) (Rattus norvegicus, UniProt P97612); test: AEA hydrolysis by HPLC-MS in crude protein of carmofur-treated HEK293-rFAAH cells; dialysis reversibility test; type: cell-based
# T1 construct: rat FAAH overexpressed in HEK293 cells (HEK293-rFAAH), crude protein
# T1 sequence (P97612 1-579): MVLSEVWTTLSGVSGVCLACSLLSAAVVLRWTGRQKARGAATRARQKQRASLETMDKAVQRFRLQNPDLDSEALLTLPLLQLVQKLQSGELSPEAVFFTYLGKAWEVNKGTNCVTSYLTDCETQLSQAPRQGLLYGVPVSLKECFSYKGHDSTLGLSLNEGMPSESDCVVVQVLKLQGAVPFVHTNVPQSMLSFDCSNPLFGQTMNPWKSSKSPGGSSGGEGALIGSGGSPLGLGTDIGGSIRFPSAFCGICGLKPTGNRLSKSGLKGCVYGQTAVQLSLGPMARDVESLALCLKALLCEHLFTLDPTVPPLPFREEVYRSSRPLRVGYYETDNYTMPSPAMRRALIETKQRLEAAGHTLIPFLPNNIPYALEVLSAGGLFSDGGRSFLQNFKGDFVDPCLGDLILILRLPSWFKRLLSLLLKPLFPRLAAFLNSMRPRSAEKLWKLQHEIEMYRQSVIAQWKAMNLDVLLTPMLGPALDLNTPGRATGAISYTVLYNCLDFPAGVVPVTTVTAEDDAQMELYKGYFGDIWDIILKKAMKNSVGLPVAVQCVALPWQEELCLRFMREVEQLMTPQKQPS
# [2] = target: T2, N-acylethanolamine acid amidase (NAAA) (Rattus norvegicus, UniProt Q5KTC7); test: C17:[…] FAE hydrolysis by HPLC-MS in crude protein of carmofur-treated HEK293-rNAAA cells; dialysis reversibility test; type: cell-based
# T2 construct: rat NAAA overexpressed in HEK293 cells (HEK293-rNAAA), crude protein
# T2 sequence (Q5KTC7 34-130): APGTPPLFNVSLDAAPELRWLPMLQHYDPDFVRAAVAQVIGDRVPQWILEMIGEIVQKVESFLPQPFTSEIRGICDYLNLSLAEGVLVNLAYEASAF
# T2 sequence (Q5KTC7 131-362): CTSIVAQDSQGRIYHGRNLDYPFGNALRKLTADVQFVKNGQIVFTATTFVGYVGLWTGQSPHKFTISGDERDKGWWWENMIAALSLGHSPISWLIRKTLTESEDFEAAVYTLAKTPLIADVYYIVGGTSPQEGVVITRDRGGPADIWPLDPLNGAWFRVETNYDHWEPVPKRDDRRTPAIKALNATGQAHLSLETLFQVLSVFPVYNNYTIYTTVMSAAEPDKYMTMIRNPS
structure (smiles),measurement,setting,value
CCCCCCNC(=O)n1cc(F)c(=O)[nH]c1=O [carmofur],IC50,[1],110 ± 25 nM
same,IC50,[2],710 ± 54 nM
